Reference: paper PMC12198407, “Preclinical and first-in-human of purinostat mesylate, a novel selective HDAC I/IIb inhibitor, in relapsed/refractory multiple myeloma and lymphoma” (Signal Transduction and Targeted Therapy, 2025)
Read-outs that look alike come from different tables or passages of the source.

Tests used:
[1] = Metabolite profiling in plasma, bile, urine, feces; type: in vivo, SD rats; conditions: for share of plasma AUC0-96h: [14C] 3 mg/100 µCi/kg i.v.; for amount in bile, % of administered dose: 0 to 72 hours; for amount in feces, % of administered dose / amount in urine, % of administered dose: 0 to 168 hours
Description: Following a single intravenous administration of [14C] Purinostat Mesylate at a dose of 3 mg/100 µCi/kg in male and female rats, a total of 14 metabolites were identified, in addition to the parent compound. These were designated as M382, M396, M474, M475, M490, M516, M517, M532, M546, M548, M558, M666, M708a, and M708b. Among these, M382 is an acetylated product of the parent drug after N-dealkylation, M396 is a carboxylic acid derivative of M382, M474 is a reduction product of the parent drug, M475 is a hydroxylated product derived from the amino conversion of M474, M490 is a mono-oxidation product of M474, M516 is an acetylated product of M474, M517 is a hydroxylated product derived from the amino conversion of M516, M532 is an acetylated product of the parent drug, M546 is a methylated product of M532, M548 is a dioxidation product of M516, M558 is a glucuronic acid conjugate of M382, M666 is a glucuronic acid conjugate of the parent drug, M708a is a mono-oxidation glucuronic acid conjugate of M516, and M708b is a glucuronic acid conjugate of M532.

89 kinases = assay: Kinase panel; type: biochemical; conditions: 1 μM
Description: The prototype drug Purinostat was tested for its inhibitory activity against 89 kinases that are strongly associated with tumors.

r/r DLBCL = conditions: cited from earlier work
[2] = test system: human double-hit lymphoma SUDHL-6; assay: SUDHL-6 subcutaneous tumor model; type: in vivo, NOD/SCID mice; conditions: positive control groups
mouse B-cell lymphoma = assay: Ighmyc transgenic B-cell lymphoma model, survival; type: in vivo, mice; conditions: positive control groups
[3] = test system: human multiple myeloma RPMI-8226; type: in vivo
MM1S xenograft = MM1S xenograft mouse model; type: in vivo, NOD-SCID mice
[4] = test system: BCR-ABL positive B-ALL PDX; assay: PDX model of clinical B-ALL patient; type: in vivo, NOD/SCID mice; conditions: positive control
Description: A clinical sample from a B-ALL patient was obtained, characterized by BCR-ABL positivity and relapse after first-line treatment.

[5] = test system: diffuse large B-cell lymphoma (DLBCL) cells from patient C; assay: Cell apoptosis analysis, primary cells; type: cell-based, human; conditions: 5 nM, 48 h
Description: (§1) CD138^+, CD38^+, or CD20^+ primary cells were obtained from plasma cell leukemia patients and DLBCL patients who had relapsed after multiple drug therapies. These patient samples were sourced from West China Hospital and had been approved by the clinical ethics committee of West China Hospital of Sichuan University (Chengdu, China). The clinical information of these patients was summarized in Supplementary Table 2. The patient primary cells were cultured in 6-well plates at a density of 1×10^6 cells/mL, and treated with control, PM, panobinostat, Pom and DXM at indicated concentrations for 48 hours. CD138, CD38, and CD20 monoclonal antibodies, Annexin V-APC and 7AAD apoptosis detection kits were used following the manufacturer’s instructions. The apoptosis cells were analyzed by flow cytometry (Thermo, AttuneTMNxT).

[6] = test system: primary MM cells from relapsed patients A and B; assay: Cell apoptosis analysis, primary cells; type: cell-based, human; conditions: 5 nM, 48 h
Description: as §1

HDAC IIa/IV = test system: HDAC IIa/IV; design: method as in PMID 27186676, PMID 31439580; conditions: range over isoforms; read-out: IC50 against HDAC IIa/IV; cited from earlier work
RL = assay: Cell viability CCK8; type: cell-based; conditions: Homo sapiens, 72 h, no unit in table, read-out: Antiproliferative activity IC50
Description: (§2) PM, panobinostat, Pom and DXM were dissolved in DMSO and stored at -20°C freezer. Cells were seeded at a density of 1.0-3.0 × 10^4 cells/well/100 μL in 96-well plates. After overnight incubation, cells were treated with the drug-containing culture medium for 24, 48, or 72 hours, and cell viability was measured using CCK8 (Oriscience, Chengdu, China) at the indicated time points with Biotek Cytation 3 at a wavelength of 450 nm. The IC50 values were calculated using GraphPad Prism 9.4.1, and Calcusyn 2.0 software was employed to calculate the CI values.

MM1R = assay: Cell viability CCK8; type: cell-based; conditions: Homo sapiens, MM.1R, 72 h, no unit in table, read-out: Antiproliferative activity IC50
Description: as §2

OPM2 = assay: Cell viability CCK8; type: cell-based; conditions: Homo sapiens, OPM-2; OPM2, 72 h; no unit in table; read-out: Antiproliferative activity IC50
Description: as §2

AMO1 = assay: Cell viability CCK8; type: cell-based; conditions: Homo sapiens; AMO1, 72 h; no unit in table; read-out: Antiproliferative activity IC50
Description: as §2

NKYS = assay: Cell viability CCK8; type: cell-based; conditions: Homo sapiens, 72 h, no unit in table, read-out: Antiproliferative activity IC50
Description: as §2

Raji = assay: Cell viability CCK8; type: cell-based; conditions: Homo sapiens, 72 h, no unit in table, read-out: Antiproliferative activity IC50
Description: as §2

Ramos = assay: Cell viability CCK8; type: cell-based; conditions: Homo sapiens, 72 h, no unit in table, read-out: Antiproliferative activity IC50
Description: as §2

RPMI-8226 = assay: Cell viability CCK8; type: cell-based; conditions: Homo sapiens; RPMI-8226, 72 h; no unit in table; read-out: Antiproliferative activity IC50
Description: as §2

RPMI-8226R = assay: Cell viability CCK8; type: cell-based; conditions: Homo sapiens, 72 h, no unit in table, read-out: Antiproliferative activity IC50
Description: as §2

SUDHL-4 = assay: Cell viability CCK8; type: cell-based; conditions: Homo sapiens, SU-DHL-4; SUDHL-4, 72 h; no unit in table; read-out: Antiproliferative activity IC50
Description: as §2

Daudi = assay: Cell viability CCK8; type: cell-based; conditions: Homo sapiens, 72 h, no unit in table, read-out: Antiproliferative activity IC50
Description: as §2

TMD-8 = assay: Cell viability CCK8; type: cell-based; conditions: Homo sapiens, TMD8; TMD-8, 72 h; no unit in table; read-out: Antiproliferative activity IC50
Description: as §2

ARD = assay: Cell viability CCK8; type: cell-based; conditions: Homo sapiens, 72 h, no unit in table, read-out: Antiproliferative activity IC50
Description: as §2

MM1S = assay: Cell viability CCK8; type: cell-based; conditions: Homo sapiens, MM1.S, 72 h, no unit in table (b9: nM), read-out: Antiproliferative activity IC50
Description: as §2

Karpas299 = assay: Cell viability CCK8; type: cell-based; conditions: Homo sapiens, KARPAS-299; Karpas299, 72 h; no unit in table; read-out: Antiproliferative activity IC50
Description: as §2

KMS-11 = assay: Cell viability CCK8; type: cell-based; conditions: Homo sapiens; KMS-11, 72 h; no unit in table; read-out: Antiproliferative activity IC50
Description: as §2

HDAC I/IIb = test system: HDAC I/IIb; design: method as in PMID 27186676, PMID 31439580; conditions: range over isoforms; read-out: IC50 against HDAC I/IIb; cited from earlier work
[7] = biological target: human ether-à-go-go-related gene (hERG) channel (Homo sapiens, UniProt Q12809); assay: hERG inhibition; type: biochemical
r/r MM = conditions: cited from earlier work
[8] = positive controls and combinations (PM 5 mg/kg in combinations)

Chain of human ether-à-go-go-related gene (hERG) channel (Q12809 whole entry): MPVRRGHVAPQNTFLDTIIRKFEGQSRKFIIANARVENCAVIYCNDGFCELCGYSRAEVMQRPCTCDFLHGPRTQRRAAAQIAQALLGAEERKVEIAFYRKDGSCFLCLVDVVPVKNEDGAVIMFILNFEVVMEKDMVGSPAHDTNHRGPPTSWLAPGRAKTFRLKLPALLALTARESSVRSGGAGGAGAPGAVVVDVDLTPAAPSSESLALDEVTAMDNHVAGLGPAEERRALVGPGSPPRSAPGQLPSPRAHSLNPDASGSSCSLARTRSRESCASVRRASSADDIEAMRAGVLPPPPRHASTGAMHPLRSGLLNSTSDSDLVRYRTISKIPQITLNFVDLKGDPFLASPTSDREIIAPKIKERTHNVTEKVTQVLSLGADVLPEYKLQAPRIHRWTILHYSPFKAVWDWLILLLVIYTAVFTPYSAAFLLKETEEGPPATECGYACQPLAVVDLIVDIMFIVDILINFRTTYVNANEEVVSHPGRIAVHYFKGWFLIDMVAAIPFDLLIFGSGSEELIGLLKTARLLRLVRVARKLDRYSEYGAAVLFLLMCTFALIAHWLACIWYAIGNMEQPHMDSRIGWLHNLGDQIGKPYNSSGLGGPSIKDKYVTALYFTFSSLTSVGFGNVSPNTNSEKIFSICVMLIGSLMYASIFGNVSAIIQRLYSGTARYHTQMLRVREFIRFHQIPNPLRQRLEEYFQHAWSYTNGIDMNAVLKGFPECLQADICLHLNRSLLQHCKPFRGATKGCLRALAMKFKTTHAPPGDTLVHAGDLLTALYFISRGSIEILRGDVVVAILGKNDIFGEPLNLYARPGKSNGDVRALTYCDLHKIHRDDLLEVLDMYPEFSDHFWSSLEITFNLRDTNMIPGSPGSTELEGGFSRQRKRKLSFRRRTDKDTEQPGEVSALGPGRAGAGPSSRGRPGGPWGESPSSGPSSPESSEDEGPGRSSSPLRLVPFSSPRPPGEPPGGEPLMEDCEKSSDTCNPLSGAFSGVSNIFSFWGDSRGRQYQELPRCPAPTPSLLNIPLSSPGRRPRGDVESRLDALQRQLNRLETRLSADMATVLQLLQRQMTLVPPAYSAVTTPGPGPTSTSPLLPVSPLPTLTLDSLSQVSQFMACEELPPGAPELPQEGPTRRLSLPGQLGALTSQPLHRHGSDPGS

## CN(Cc1nc2c(N3CCOCC3)nc(-c3ccc(N)cc3)nc2n1C)c1ncc(C(N)=O)cn1 [M474]
[1]; female rats
  share of plasma AUC0-96h: 13.75%
[1]; females
  amount in bile, % of administered dose: 1.16% to 3.30
  amount in feces, % of administered dose: 0.79% to 5.53
  amount in urine, % of administered dose: 0.43% to 0.87
[1]; male rats
  share of plasma AUC0-96h: 13.79%
[1]; males
  amount in bile, % of administered dose: 0.97% to 4.38
  amount in feces, % of administered dose: 1.27% to 6.00
  amount in urine, % of administered dose: 1.02% to 1.92

## CN(Cc1nc2c(N3CCOCC3)nc(-c3ccc(N)cc3)nc2n1C)c1ncc(C(=O)O)cn1 [M475]
[1]; female rats
  share of plasma AUC0-96h: 4.71% to 9.05
[1]; male rats
  share of plasma AUC0-96h: 4.85% to 6.67

## CC(=O)Nc1ccc(-c2nc(N3CCOCC3)c3nc(CN(C)c4ncc(C(N)=O)cn4)n(C)c3n2)cc1 [M516]
[1]; female rats
  share of plasma AUC0-96h: 15.61%
[1]; females
  amount in bile, % of administered dose: 5.77% to 7.49
  amount in feces, % of administered dose: 30.10%
  amount in urine, % of administered dose: 2.35% to 2.49
[1]; male rats
  share of plasma AUC0-96h: 17.42%
[1]; males
  amount in bile, % of administered dose: 4.75% to 8.74
  amount in feces, % of administered dose: 27.70%
  amount in urine, % of administered dose: 0.88% to 3.01

## CC(=O)Nc1ccc(-c2nc(N3CCOCC3)c3nc(CN(C)c4ncc(C(=O)O)cn4)n(C)c3n2)cc1 [M517]
[1]; females
  amount in bile, % of administered dose: 1.16% to 3.30
  amount in feces, % of administered dose: 0.79% to 5.53
[1]; males
  amount in bile, % of administered dose: 0.97% to 4.38
  amount in feces, % of administered dose: 1.27% to 6.00

## CC(=O)Nc1ccc(-c2nc(N3CCOCC3)c3nc(CN(C)c4ncc(C(=O)NO)cn4)n(C)c3n2)cc1 [M532]
[1]; female rats
  share of plasma AUC0-96h: 4.71% to 9.05
[1]; females
  amount in urine, % of administered dose: 0.43% to 0.87
[1]; male rats
  share of plasma AUC0-96h: 4.85% to 6.67
[1]; males
  amount in urine, % of administered dose: 1.02% to 1.92

## CONC(=O)c1cnc(N(C)Cc2nc3c(N4CCOCC4)nc(-c4ccc(NC(C)=O)cc4)nc3n2C)nc1 [M546]
[1]; female rats
  share of plasma AUC0-96h: 4.71% to 9.05
[1]; females
  amount in bile, % of administered dose: 1.16% to 3.30
  amount in feces, % of administered dose: 0.79% to 5.53
[1]; male rats
  share of plasma AUC0-96h: 4.85% to 6.67
[1]; males
  amount in bile, % of administered dose: 0.97% to 4.38
  amount in feces, % of administered dose: 1.27% to 6.00

## CN(Cc1nc2c(N3CCOCC3)nc(-c3ccc(N)cc3)nc2n1C)c1ncc(C(=O)NO)cn1 [Purinostat]
89 kinases
  inhibitory activity against 89 kinases: no significant inhibitory activity

## O=C(/C=C/c1cccc(S(=O)(=O)Nc2ccccc2)c1)NO [belinostat]
r/r DLBCL; SWOG S0520
  ORR in r/r DLBCL: 10.5%

## Cc1[nH]c2ccccc2c1CCNCc1ccc(/C=C/C(=O)NO)cc1 [panobinostat, reference compound]
[2]
  T/C: 92.55±13.13%
  tumor inhibition rate: 12.92%
Mouse B-cell lymphoma
  median survival time: 20 days
[3]; [8]
  T/C: 35.1%
  tumor inhibition rate: 59.79%
[3]; satellite groups, PM 5 mg/kg alone or combined, control regimens
  median survival time: 52.5 days
MM1S xenograft; 10 mg/kg i.v. three times a week
  tumor inhibition rate: 49.37%
MM1S xenograft; positive control groups
  relative tumor growth rate T/C: 45.1%
MM1S xenograft; positive control groups, regimens per Table S9
  tumor inhibition rate: 49.37%
MM1S xenograft; satellite group, positive control
  median survival time: 26.5 days
[4]
  median survival time: 17 days
[5]
  apoptosis: 20.49%
[6]; patient A
  apoptosis: 54.5%
[6]; patient B
  apoptosis: 40.1%
HDAC IIa/IV
  IC50: 2.7 to 531 nM
RL
  IC50: 6.43 ± 0.45 nM
MM1R
  IC50: 0.87 ± 0.01 nM
OPM2
  IC50: 4.4 ± 0.27 nM
AMO1
  IC50: 3.45 ± 0.5 nM
NKYS
  IC50: 4.81 ± 0.14 nM
Raji
  IC50: 5.48 ± 4.81 nM
Ramos
  IC50: 5 ± 0.53 nM
RPMI-8226
  IC50: 9.3 ± 0.55 nM
RPMI-8226R
  IC50: 5.56 ± 0.49 nM
SUDHL-4
  IC50: 6.72 ± 0.49 nM
Daudi
  IC50: 6.99 ± 3.9 nM
TMD-8
  IC50: 9.12 ± 0.25 nM
ARD
  IC50: 1.82 ± 0.16 nM
MM1S
  IC50: 2.87 ± 0.12 nM
Karpas299
  IC50: 4.03 ± 0.2 nM
KMS-11
  IC50: 7.94 ± 0.59 nM
HDAC I/IIb
  IC50: 2.1 to 277 nM
[7]
  IC50: 3500 nM
r/r MM; phase II
  response, monotherapy in r/r MM: 1 PR and 1 MR in 38 patients

## C/C=C1\NC(=O)[C@H]2CSSCC/C=C/[C@H](CC(=O)N[C@H](C(C)C)C(=O)N2)OC(=O)[C@H](C(C)C)NC1=O [romidepsin]
r/r MM; phase II
  response, monotherapy in r/r MM: 4/12 patients SD

## O=C(CCCCCCC(=O)Nc1ccccc1)NO [vorinostat]
r/r DLBCL
  ORR in r/r DLBCL: 6%
r/r MM; phase I
  response, monotherapy in r/r MM: 1 MR in 10 patients
